{"source": "patent US20240309043A1", "about": "“THERAPEUTICALLY ACTIVE STEROIDAL DERIVATIVES” (Organon R&D Finland Ltd., priority 2017, published 2024)", "key": {"human hepatocytes": {"tested_on": "human hepatocytes", "assay": "Metabolic stability assay, human hepatocyte incubations", "assay_type": "in vitro ADME", "conditions": "37° C., 0-60 min, half life", "procedure": "The in vitro metabolic stability of the compounds of the invention was determined for exemplified compounds using human hepatocyte incubations. Study compounds were incubated 0, 10, 20, 40 and 60 min at 37° C. Samples were collected at all time points and compounds were detected by LC-MS/MS analysis. The percent compound remaining is calculated by comparing the peak area of the parent compound at each time point to time zero. In vitro metabolic stability was determined as half life (T½), which was determined by regression analysis of the percent parent disappearance vs. time curve. The results are summarized in Table2."}, "[1]": {"target": "T1, recombinant human 17β-HSD2 (Homo sapiens, UniProt P37059)", "T1 construct": "made in house; host or cells: Sd9 (Sf9) insect cells, baculovirus (Bac to Bac Expression System)", "T1 sequence (P37059 1-387)": "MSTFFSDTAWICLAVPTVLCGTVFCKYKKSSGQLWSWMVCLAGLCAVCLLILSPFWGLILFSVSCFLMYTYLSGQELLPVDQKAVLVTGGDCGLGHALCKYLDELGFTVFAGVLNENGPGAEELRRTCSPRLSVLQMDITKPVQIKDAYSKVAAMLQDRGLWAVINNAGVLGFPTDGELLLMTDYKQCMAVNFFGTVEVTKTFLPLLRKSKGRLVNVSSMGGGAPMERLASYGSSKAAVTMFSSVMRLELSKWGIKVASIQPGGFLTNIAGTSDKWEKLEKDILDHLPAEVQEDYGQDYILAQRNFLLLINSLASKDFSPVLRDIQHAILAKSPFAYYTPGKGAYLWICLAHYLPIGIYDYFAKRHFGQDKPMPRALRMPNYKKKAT", "assay": "Inhibition of recombinant human 17β-HSD2", "assay_type": "biochemical", "conditions": "inhibitor 1 μM; 50 nM estradiol, 1 mM NADH, 30 min RT", "procedure,_shortened": "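Sf9 baculovirus-expressed enzyme membrane extract (4 μg/ml) incubated 30 min at RT in 20 mM KH2PO4 pH 8.5 with 50 nM estradiol (³H-tracer) and 1 mM NADH, inhibitor at 1 μM or 0.1 μM, 1% DMSO. TCA-stopped; estradiol-to-estrone conversion by radio-HPLC, % inhibition = 100 − % conversion.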"}, "[2]": {"target": "T2, recombinant human 17β-HSD1 (Homo sapiens, UniProt P14061)", "T2 construct": "made in house; host or cells: Sd9 (Sf9) insect cells, baculovirus (Bac to Bac Expression System)", "T2 sequence (P14061 1-328)": "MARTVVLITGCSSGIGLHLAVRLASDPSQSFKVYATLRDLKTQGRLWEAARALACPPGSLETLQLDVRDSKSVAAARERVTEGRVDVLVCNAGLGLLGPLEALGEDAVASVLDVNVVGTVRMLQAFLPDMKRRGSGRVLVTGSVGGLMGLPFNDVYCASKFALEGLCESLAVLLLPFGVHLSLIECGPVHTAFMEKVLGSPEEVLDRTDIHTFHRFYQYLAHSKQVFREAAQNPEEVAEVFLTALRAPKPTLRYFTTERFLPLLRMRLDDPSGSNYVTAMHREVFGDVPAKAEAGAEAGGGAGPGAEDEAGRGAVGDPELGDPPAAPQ", "assay": "Inhibition of recombinant human 17β-HSD1", "assay_type": "biochemical", "conditions": "inhibitor 100 nM; 30 nM estrone, 1 mM NADPH, 30 min RT", "procedure,_shortened": "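Microsomes from Sf9 cells expressing human 17β-HSD1 (1 μg/ml) were incubated for 30 min at RT in 20 mM KH2PO4 pH 7.4 with 30 nM ³H-estrone, 1 mM NADPH and inhibitor at 1 μM or 0.1 μM (1% DMSO). Estrone-to-estradiol conversion was measured by radio-HPLC after TCA stop, and % inhibition was taken as 100 − % conversion.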"}, "[3]": {"tested_on": "HSD1 enzyme that is expressed in rabbit placenta tissue", "assay": "Inhibition of E1 to E2 conversion in rabbit placenta tissue homogenate", "assay_type": "biochemical", "conditions": "inhibitor 100 nM, 30 nM estrone, 30 min"}}}
{"smiles": "C[C@]12CCC3c4ccccc4CCC3C1[C@H](CCC(=O)Nc1ccc(F)cn1)C/C2=N\\O", "note": "(stereo partly drawn) [Compound 98, N-(5-fluoropyridin-2-yl)-3-((13S,15R,E)-17-(hydroxyimino)-13-methyl-7,8,9,11,12,13,14,15,16,17-decahydro-6H-cyclopenta[a]phenanthren-15-yl)propanamide]", "values": [{"measurement": "Human hepatocytes MetStab T1_2 min", "setting": "human hepatocytes", "value": 28, "unit": "min"}, {"measurement": "inhibition at 1 µM", "setting": "[1]", "value": 0, "unit": "%"}, {"measurement": "inhibition at 0.1 µM", "setting": "[2]", "value": 60, "unit": "%"}, {"measurement": "Rabbit placenta inhibition % @100 nM", "setting": "[3]", "value": 4, "unit": "%"}]}
{"smiles": "COc1ccnc(NC(=O)CC[C@@H]2C/C(=N\\O)[C@@]3(C)CCC4c5ccccc5CCC4C23)c1", "note": "(stereo partly drawn) [Compound 106, 3-((13S,15R,E)-17-(hydroxyimino)-13-methyl-7,8,9,11,12,13,14,15,16,17-decahydro-6H-cyclopenta[a]phenanthren-15-yl)-N-(4-methoxypyridin-2-yl)propanamide]", "values": [{"measurement": "Human hepatocytes MetStab T1_2 min", "setting": "human hepatocytes", "value": 31, "unit": "min"}, {"measurement": "inhibition at 1 µM", "setting": "[1]", "value": 2, "unit": "%"}, {"measurement": "inhibition at 0.1 µM", "setting": "[2]", "value": 76, "unit": "%"}, {"measurement": "Rabbit placenta inhibition % @100 nM", "setting": "[3]", "value": 5, "unit": "%"}]}
{"smiles": "Cc1cnc(NC(=O)CC[C@@H]2C/C(=N\\O)[C@@]3(C)CCC4c5ccccc5CCC4C23)o1", "note": "(stereo partly drawn) [Compound 108, 3-((13S,15R,E)-17-(hydroxyimino)-13-methyl-7,8,9,11,12,13,14,15,16,17-decahydro-6H-cyclopenta[a]phenanthren-15-yl)-N-(5-methyloxazol-2-yl)propanamide]", "values": [{"measurement": "Human hepatocytes MetStab T1_2 min", "setting": "human hepatocytes", "value": 21, "unit": "min"}, {"measurement": "inhibition at 1 µM", "setting": "[1]", "value": 5, "unit": "%"}, {"measurement": "inhibition at 0.1 µM", "setting": "[2]", "value": 54, "unit": "%"}, {"measurement": "Rabbit placenta inhibition % @100 nM", "setting": "[3]", "value": 20, "unit": "%"}]}
{"smiles": "Cc1cc(NC(=O)CC[C@@H]2C/C(=N\\O)[C@@]3(C)CCC4c5ccccc5CCC4C23)no1", "note": "(stereo partly drawn) [Compound 110]", "values": [{"measurement": "Human hepatocytes MetStab T1_2 min", "setting": "human hepatocytes", "value": 26, "unit": "min"}, {"measurement": "inhibition at 1 µM", "setting": "[1]", "value": -4, "unit": "%"}, {"measurement": "inhibition at 0.1 µM", "setting": "[2]", "value": 33, "unit": "%"}, {"measurement": "Rabbit placenta inhibition % @100 nM", "setting": "[3]", "value": 35, "unit": "%"}]}
{"smiles": "CC(C)c1ccc(NC(=O)CC[C@@H]2C/C(=N\\O)[C@@]3(C)CCC4c5cccc(F)c5CCC4C23)nc1", "note": "(stereo partly drawn) [Compound 112, 3-((13S,15R,E)-4-fluoro-17-(hydroxyimino)-13-methyl-7,8,9,11,12,13,14,15,16,17-decahydro-6H-cyclopenta[a]phenanthren-15-yl)-N-(5-isopropylpyridin-2-yl)propanamide]", "values": [{"measurement": "Human hepatocytes MetStab T1_2 min", "setting": "human hepatocytes", "value": 29, "unit": "min"}, {"measurement": "inhibition at 1 µM", "setting": "[1]", "value": 7, "unit": "%"}, {"measurement": "inhibition at 0.1 µM", "setting": "[2]", "value": 96, "unit": "%"}, {"measurement": "Rabbit placenta inhibition % @100 nM", "setting": "[3]", "value": 67, "unit": "%"}]}
{"smiles": "C[C@]12CCC3c4cccc(F)c4CCC3C1[C@H](CCC(=O)Nc1ccc(N3CCOCC3)cn1)C/C2=N\\O", "note": "(stereo partly drawn) [Compound 114, 3-((13S,15R,E)-4-fluoro-17-(hydroxyimino)-13-methyl-7,8,9,11,12,13,14,15,16,17-decahydro-6H-cyclopenta[a]phenanthren-15-yl)-N-(5-morpholinopyridin-2-yl)propanamide]", "values": [{"measurement": "Human hepatocytes MetStab T1_2 min", "setting": "human hepatocytes", "value": 40, "unit": "min"}, {"measurement": "inhibition at 1 µM", "setting": "[1]", "value": 7, "unit": "%"}, {"measurement": "inhibition at 0.1 µM", "setting": "[2]", "value": 100, "unit": "%"}, {"measurement": "Rabbit placenta inhibition % @100 nM", "setting": "[3]", "value": 75, "unit": "%"}]}
